Experiment [1] deals with T1, vasopressin V1 receptor (human platelet membranes) (Homo sapiens, UniProt P37288).
T1 construct: tissue Hudson Valley Blood Services; host or cells: human platelets (frozen platelet rich plasma)
The experiment in a line: Binding to Vasopressin V1 receptor subtype in Human Platelet Membranes. As for the experimental part: Radioligand Binding Experiments with Human Platelet Membranes
(a) Platelet Membrane Preparation
Frozen platelet rich plasma (PRP), received from the Hudson Valley Blood Services, are thawed to room temperature. (Platelet Source: Hudson Valley Blood Services, Westchester Medical Center, Valhalla, N.Y.). The tubes containing the PRP are centrifuged at 16,000×g for 10 minutes at 4° C. and the supernatant fluid discarded. The platelets resuspended in an equal volume of 50.0 mM Tris.HCL, pH 7.5 containing 120 mM NaCl and 20.0 mM EDTA. The suspension is recentrifuged at 16,000×g for 10 minutes. This washing step is repeated one more time. The wash discarded and the lysed pellets homogenized in low ionic strength buffer of Tris. HCl, […], pH 7.5 containing 5.0 mM EDTA. The homogenate is centrifuged at 39,000×g for 10 minutes. The resulting pellet is resuspended in Tris.HCl buffer, 70.0 mM, pH 7.5 and recentrifuged at 39,000×g for 10 minutes. […]
In wells of a 96 well format microtiter plate, add 100 ml of 50.0 mM Tris. […] Non specific binding is measured in the presence of 1.0 mM of unlabeled ligand (Manning or Arg^8 Vasopressin). […] The radioactivity caught on the filter disks is determined by the addition of liquid scintillant and counting in a liquid scintillator.

The target of experiment [2] is T2, human V2 vasopressin receptor (Homo sapiens, UniProt P30518).
T2 construct: expressed in transfected cells; host or cells: mouse fibroblast cell line LV-2
The experiment in a line: Binding to Membranes of Mouse Fibroblast Cell Line (LV-2) Transfected with the cDNA Expressing the Human V2 Vasopressin Receptor. As for the experimental part: Binding to Membranes of Mouse Fibroblast Cell Line (LV-2) Transfected with the cDNA Expressing the Human V2 Vasopressin Receptor
Flasks of 175 ml capacity, continuing attached cells grown to confluence, are cleared of culture medium by aspiration. The flasks containing the attached cells are rinsed with 2×5 ml of phosphate buffered saline (PBS) and the liquid aspirated off each time. […] The protein content is determined by the Lowry method and the receptor membranes are suspended in 50.0 mM Tris.HCl buffer containing 0.1 mM phenylmethylsulfonylfluoride (PMSF) and 0.2% bovine serum albumin (BSA) to give 2.5 mg receptor protein per ml of suspension.
For binding experiments, the following is added in ml volume to wells of a 96 well format of a microtiter plate: 100.0 ml of 100.0 mM Tris.HCl buffer containing 0.2% heat inactivated BSA, 10.0 mM MgCl2 and a mixture of protease inhibitors: leupeptin, 1.0 mg %; aprotinin, 1.0 mg %; 1,10-phenanthroline, 2.0 mg %; trypsin inhibitor, 10.0 mg % and 0.1 mM PMSF., 20.0 ml of [^3 H] […] Non specific binding is assessed in the presence of 1.0 mM of unlabeled ligand, added in 20 ml volume. […] The radioactivity trapped on the filter disk by the ligand-receptor complex is assessed by liquid scintillation counting in a Packard LS Counter, with an efficiency of 65% for tritium.

T2 sequence (P30518 whole entry): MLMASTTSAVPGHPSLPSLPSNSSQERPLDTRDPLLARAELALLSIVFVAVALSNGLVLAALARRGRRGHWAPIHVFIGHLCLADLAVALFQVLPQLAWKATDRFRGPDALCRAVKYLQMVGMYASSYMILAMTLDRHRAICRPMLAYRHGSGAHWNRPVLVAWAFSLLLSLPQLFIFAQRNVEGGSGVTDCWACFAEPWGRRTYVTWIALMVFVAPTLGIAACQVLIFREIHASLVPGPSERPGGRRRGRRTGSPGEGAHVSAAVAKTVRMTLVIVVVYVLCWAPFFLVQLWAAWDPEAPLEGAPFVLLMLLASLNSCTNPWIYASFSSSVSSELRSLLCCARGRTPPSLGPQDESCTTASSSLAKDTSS
T1 sequence (P37288 whole entry): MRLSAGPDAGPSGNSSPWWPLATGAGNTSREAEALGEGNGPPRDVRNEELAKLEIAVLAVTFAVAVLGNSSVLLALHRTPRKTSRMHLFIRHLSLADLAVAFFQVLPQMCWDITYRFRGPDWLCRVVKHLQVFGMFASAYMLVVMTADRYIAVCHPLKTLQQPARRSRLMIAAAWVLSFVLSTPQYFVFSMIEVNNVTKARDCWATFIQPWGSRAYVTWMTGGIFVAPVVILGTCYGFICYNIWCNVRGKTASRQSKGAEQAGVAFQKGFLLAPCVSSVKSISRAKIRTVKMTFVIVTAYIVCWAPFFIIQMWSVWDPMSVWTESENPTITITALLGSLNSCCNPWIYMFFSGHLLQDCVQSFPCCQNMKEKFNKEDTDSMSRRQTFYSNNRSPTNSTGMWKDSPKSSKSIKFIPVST

In the case of `CCCCOc1ccc(C(=O)N2Cc3ccccc3Cc3ccccc32)cc1` [Example 24], the “V1 %” value in experiment [1] ("(μM)" (concentration not given), 90 min) worked out at 72%. In experiment [2] (** human V2, LV-2 membranes, 10 μM), this compound showed an inhibition at 10 µM of 26%.
For the compound `O=C(c1ccc(-c2ccccc2)cc1)N1Cc2sccc2Cc2ccccc21` [Example 27, 9-([1,1'-Biphenyl]-4-ylcarbonyl)-9,10-dihydro-4H-thieno[2,3-c][1]benzazepine], the IC50 in experiment [1] was 14 nM; in experiment [2] (** human V2 receptor, LV-2 membranes) it was 1800 nM.

The values are drawn from patent US5849735A, “Tricyclic benzazepine vasopressin antagonists” (American Cyanamid Company, priority 1995, dated 1998).
